The supplement of paper PMC10307832

Assays:
Assay in all cases: relative viability (nuclei count vs DMSO), 5 days (fraction); higher = more cells survive
Seliciclib + Pictilisib = compound: CC[C@H](CO)Nc1nc(NCc2ccccc2)c2ncn(C(C)C)c2n1 [Seliciclib] + CS(=O)(=O)N1CCN(Cc2cc3nc(-c4cccc5[nH]ncc45)nc(N4CCOCC4)c3s2)CC1 [Pictilisib] (partner 1 µM)
Procedure, shortened: (§1)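 Lung cancer cell lines were pin-tool dosed in 1536-well plates on the day after seeding, with either a lone drug or a fixed anchor-drug dose plus five library-drug doses (not always all listed) in √10 steps. Nuclei were counted on 4× images after 5 days. Relative viability is the ratio of treated-well to vehicle-well nuclei counts, with each value a median of duplicate plates.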

Seliciclib + Decitabine = compound: CC[C@H](CO)Nc1nc(NCc2ccccc2)c2ncn(C(C)C)c2n1 [Seliciclib] + Nc1ncn([C@H]2C[C@H](O)[C@@H](CO)O2)c(=O)n1 [Decitabine] (partner 2 µM)
Procedure, shortened: as §1

Seliciclib + Crizotinib = compound: CC[C@H](CO)Nc1nc(NCc2ccccc2)c2ncn(C(C)C)c2n1 [Seliciclib] + C[C@@H](Oc1cc(-c2cnn(C3CCNCC3)c2)cnc1N)c1c(Cl)ccc(F)c1Cl [Crizotinib] (partner 1 µM)
Procedure, shortened: as §1

Seliciclib + Alpelisib = compound: CC[C@H](CO)Nc1nc(NCc2ccccc2)c2ncn(C(C)C)c2n1 [Seliciclib] + Cc1nc(NC(=O)N2CCC[C@H]2C(N)=O)sc1-c1ccnc(C(C)(C)C(F)(F)F)c1 [Alpelisib] (partner 2 µM)
Procedure, shortened: as §1

Seliciclib + Phenformin = compound: CC[C@H](CO)Nc1nc(NCc2ccccc2)c2ncn(C(C)C)c2n1 [Seliciclib] + N=C(N)NC(=N)NCCc1ccccc1 [Phenformin] (partner 250 µM)
Procedure, shortened: as §1

Seliciclib + Lapatinib = compound: CC[C@H](CO)Nc1nc(NCc2ccccc2)c2ncn(C(C)C)c2n1 [Seliciclib] + CS(=O)(=O)CCNCc1ccc(-c2ccc3ncnc(Nc4ccc(OCc5cccc(F)c5)c(Cl)c4)c3c2)o1 [Lapatinib] (partner 2 µM)
Procedure, shortened: as §1

Seliciclib + Olaparib = compound: CC[C@H](CO)Nc1nc(NCc2ccccc2)c2ncn(C(C)C)c2n1 [Seliciclib] + O=C(c1cc(Cc2n[nH]c(=O)c3ccccc23)ccc1F)N1CCN(C(=O)C2CC2)CC1 [Olaparib] (partner 8 µM)
Procedure, shortened: as §1

Seliciclib + Navitoclax = compound: CC[C@H](CO)Nc1nc(NCc2ccccc2)c2ncn(C(C)C)c2n1 [Seliciclib] + CC1(C)CCC(c2ccc(Cl)cc2)=C(CN2CCN(c3ccc(C(=O)NS(=O)(=O)c4ccc(N[C@H](CCN5CCOCC5)CSc5ccccc5)c(S(=O)(=O)C(F)(F)F)c4)cc3)CC2)C1 [Navitoclax] (partner 0.5 µM)
Procedure, shortened: as §1

Seliciclib + Foretinib = compound: CC[C@H](CO)Nc1nc(NCc2ccccc2)c2ncn(C(C)C)c2n1 [Seliciclib] + COc1cc2c(Oc3ccc(NC(=O)C4(C(=O)Nc5ccc(F)cc5)CC4)cc3F)ccnc2cc1OCCCN1CCOCC1 [Foretinib] (partner 0.25 µM)
Procedure, shortened: as §1

Seliciclib + Linsitinib = compound: CC[C@H](CO)Nc1nc(NCc2ccccc2)c2ncn(C(C)C)c2n1 [Seliciclib] + C[C@]1(O)C[C@@H](c2nc(-c3ccc4ccc(-c5ccccc5)nc4c3)c3c(N)nccn32)C1 [Linsitinib] (partner 1 µM)
Procedure, shortened: as §1

Seliciclib = compound: CC[C@H](CO)Nc1nc(NCc2ccccc2)c2ncn(C(C)C)c2n1 [Seliciclib]
Procedure, shortened: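 A plate was accepted only when its control CV was below 25% and the cells had doubled at least once. Viability is defined from nuclear counts as treated wells divided by vehicle wells, with the median taken across plates. That median covers lung cancer cell lines grown in 1536-well plates, dosed by pinning at five √10-spaced library-drug concentrations, and counted in MetaXpress from 4× Hoechst images after 5 days.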

## A549
Seliciclib + Pictilisib; first compound 0.08 µM
  relative viability: 0.501
Seliciclib + Pictilisib; first compound 0.253 µM
  relative viability: 0.595
Seliciclib + Pictilisib; first compound 0.8 µM
  relative viability: 0.525
Seliciclib + Pictilisib; first compound 2.53 µM
  relative viability: 0.507
Seliciclib + Pictilisib; first compound 8 µM
  relative viability: 0.273
Seliciclib + Decitabine; first compound 0.08 µM
  relative viability: 0.279
Seliciclib + Decitabine; first compound 0.253 µM
  relative viability: 0.235
Seliciclib + Decitabine; first compound 0.8 µM
  relative viability: 0.188
Seliciclib + Decitabine; first compound 2.53 µM
  relative viability: 0.286
Seliciclib + Decitabine; first compound 8 µM
  relative viability: 0.248
Seliciclib + Crizotinib; first compound 0.08 µM
  relative viability: 0.674
Seliciclib + Crizotinib; first compound 0.253 µM
  relative viability: 0.82
Seliciclib + Crizotinib; first compound 0.8 µM
  relative viability: 0.799
Seliciclib + Crizotinib; first compound 2.53 µM
  relative viability: 0.809
Seliciclib + Crizotinib; first compound 8 µM
  relative viability: 0.591
Seliciclib + Alpelisib; first compound 0.08 µM
  relative viability: 0.763
Seliciclib + Alpelisib; first compound 0.253 µM
  relative viability: 0.67
Seliciclib + Alpelisib; first compound 0.8 µM
  relative viability: 0.696
Seliciclib + Alpelisib; first compound 2.53 µM
  relative viability: 0.656
Seliciclib + Alpelisib; first compound 8 µM
  relative viability: 0.458
Seliciclib + Phenformin; first compound 0.08 µM
  relative viability: 0.154
Seliciclib + Phenformin; first compound 0.8 µM
  relative viability: 0.183
Seliciclib + Phenformin; first compound 2.53 µM
  relative viability: 0.171
Seliciclib + Phenformin; first compound 8 µM
  relative viability: 0.127
Seliciclib + Lapatinib; first compound 0.08 µM
  relative viability: 1
Seliciclib + Lapatinib; first compound 0.253 µM
  relative viability: 0.913
Seliciclib + Lapatinib; first compound 0.8 µM
  relative viability: 0.991
Seliciclib + Lapatinib; first compound 2.53 µM
  relative viability: 0.981
Seliciclib + Lapatinib; first compound 8 µM
  relative viability: 0.623
Seliciclib + Olaparib; first compound 0.08 µM
  relative viability: 0.3
Seliciclib + Olaparib; first compound 0.253 µM
  relative viability: 0.41
Seliciclib + Olaparib; first compound 0.8 µM
  relative viability: 0.251
Seliciclib + Olaparib; first compound 2.53 µM
  relative viability: 0.26
Seliciclib + Olaparib; first compound 8 µM
  relative viability: 0.361
Seliciclib + Navitoclax; first compound 0.08 µM
  relative viability: 1.08
Seliciclib + Navitoclax; first compound 0.253 µM
  relative viability: 1.06
Seliciclib + Navitoclax; first compound 0.8 µM
  relative viability: 1.21
Seliciclib + Navitoclax; first compound 2.53 µM
  relative viability: 1.19
Seliciclib + Navitoclax; first compound 8 µM
  relative viability: 0.925
Seliciclib + Foretinib; first compound 0.08 µM
  relative viability: 0.919
Seliciclib + Foretinib; first compound 0.253 µM
  relative viability: 0.985
Seliciclib + Foretinib; first compound 0.8 µM
  relative viability: 0.895
Seliciclib + Foretinib; first compound 2.53 µM
  relative viability: 0.966
Seliciclib + Foretinib; first compound 8 µM
  relative viability: 0.775
Seliciclib + Linsitinib; first compound 0.08 µM
  relative viability: 0.599
Seliciclib + Linsitinib; first compound 0.253 µM
  relative viability: 0.473
Seliciclib + Linsitinib; first compound 0.8 µM
  relative viability: 0.434
Seliciclib + Linsitinib; first compound 2.53 µM
  relative viability: 0.651
Seliciclib + Linsitinib; first compound 8 µM
  relative viability: 0.446
Seliciclib; 0.08 µM
  relative viability: 0.914
Seliciclib; 0.253 µM
  relative viability: 0.985
Seliciclib; 0.8 µM
  relative viability: 0.931
Seliciclib; 2.53 µM
  relative viability: 0.906
Seliciclib; 8 µM
  relative viability: 0.81
